The text below walks through data of patent publication US7723366B2 (Chugai Seiyaku Kabushiki Kaisha, priority 2001, dated 2010).

Series [1] relates to muscle (M) isoform of CPT-I. The note with it: read-out: IC50 of malonyl-CoA inhibition of CPT-I; cited from earlier work.
The test system of series [2] is human breast cancer cells and xenografts. The note with it: cited from earlier work.
Series [3] deals with T1, malonyl-CoA decarboxylase prepared from rat heart (Rattus norvegicus, UniProt Q920F5).
T1 construct: from tissue; host or cells: rat heart
T1 sequence (Q920F5 39-492): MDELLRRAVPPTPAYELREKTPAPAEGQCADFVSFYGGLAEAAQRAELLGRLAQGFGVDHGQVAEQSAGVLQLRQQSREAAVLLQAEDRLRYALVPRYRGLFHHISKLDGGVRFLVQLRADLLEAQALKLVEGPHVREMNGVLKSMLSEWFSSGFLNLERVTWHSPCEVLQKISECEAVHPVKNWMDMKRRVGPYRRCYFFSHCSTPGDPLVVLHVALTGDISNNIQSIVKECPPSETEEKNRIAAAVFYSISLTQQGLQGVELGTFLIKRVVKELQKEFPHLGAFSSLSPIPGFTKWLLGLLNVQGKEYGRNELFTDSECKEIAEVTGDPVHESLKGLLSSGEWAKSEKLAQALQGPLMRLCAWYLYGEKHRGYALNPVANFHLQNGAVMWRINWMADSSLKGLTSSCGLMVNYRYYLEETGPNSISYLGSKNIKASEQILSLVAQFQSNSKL
The series is described as follows: In vitro MCD inhibitory assay (spectrophotometric, 96 well). Format: biochemical. The note with it: read-out: IC50 of the MCD inhibitors. As for the experimental part: The following reagents are added into a 96 well titer plate: Tris-HCl buffer, 20 μL; DTE, 10 μL; I -malate, 20 μL; NAD, 10 μL; NADH, 25 μL; water, 80 μL; malic dehydrogenase, 5 μL. The contents are mixed and incubated for 2 min followed by the addition of 5 μL of citrate synthase. […] The content is incubated and absorbence at […] is measured.
Active compounds are characterized by the concentration of the compound that caused 50% inhibition of MCD activity (IC50).

Series [4] deals with isolated working hearts from male Sprague-Dawley rats. The series can be described thus: Glucose oxidation and fatty acid oxidation measurement in the perfused rat heart. Conditions: compared with known metabolism modulators ranolazine or trimetazidine. As for the experimental part:
Isolated working hearts from male Sprague-Dawley rats are subjected to a 60-minute aerobic perfusion period with a modified Krebs-Henseleit solution containing 5 mmol/L glucose; 100 μU/mL insulin; 3% BAS; and 1.2 mmol/L palmitate. Working hearts are used in these studies to approximate the metabolic demand of the heart seen in vivo. (Kantor et al., Circulation Research 86:580-588(2000)). The test compound is added 5 minutes into the perfusion period.
Glucose oxidation rates are determined by the quantitative collection of ^14CO2 produced by hearts perfused with buffer containing […]. Rates of fatty acid oxidation are determined by the quantitative collection of ^14CO2 produced by hearts perfused with buffer containing [^14C]palmitate (McNeill, J. H. in “Measurement of cardiovascular function”, chapter 2, CRC press, New York (1997)).
Active compounds are characterized by an increase in glucose oxidation as compared to control experiment (DMSO). The compounds that caused statistically significant increases in glucose oxidation are considered to be active. The preferred compounds cause statistically significant increases in glucose oxidation at 20 μM. Statistical significance was calculated using the Student's t test for paired or unpaired samples, as appropriate. The results with P<0.05 are considered to be statistically significant.

One may read the IC50 as the point on the concentration scale where inhibition reaches its midpoint. For the compound `CC(C)(COP(=O)(O)OP(=O)(O)OC[C@H]1O[C@@H](n2cnc3c(N)ncnc32)[C@H](O)[C@@H]1OP(=O)(O)O)[C@@H](O)C(=O)NCCC(=O)NCCSC(=O)CC(=O)O` [Malonyl-CoA], the IC50 in series [1] is 30 nM.

For `CCCCCCCCCCCCCCOc1ccc(C(=O)O)o1` [TOFA, 5-(tetradecyloxy)-2-furoic acid], the malonyl-CoA level in series [2] (breast carcinoma cells) is 60 % of the control. In addition, the antitumor activity result in series [2] was “does not show any antitumor activity”.

Regarding `CCCCCCNc1ccc2nc(S)sc2c1` [Table 2; entry 1, 6-(hexylamino)-1,3-benzothiazole-2-thiol], the 50% inhibitory concentration (IC50) in series [3] amounted to 535 nM.

As to `Sc1nc2ccc(NCc3ccccc3)cc2s1` [Table 2; entry 3, 6-[(phenylmethyl)amino]-1,3-benzothiazole-2-thiol], the IC50 in series [3] came out at 2620 nM.

Take `CCCCCCN(C(=O)Nc1cc(OC)cc(OC)c1)c1ccc2nc(S)sc2c1` [Table 3; entry 1, N′-[3,5-bis(methyloxy)phenyl]-N-hexyl-N-(2-mercapto-1,3-benzothiazol-6-yl)urea]: in series [3], the IC50 is 65 nM. Further, in series [4], the “effects in metabolism shift compared with ranolazine or trimetazidine” value is “more profound effects in metabolism shift”.

With `CCN(C(=O)Nc1ccccc1)c1ccc2nc(S)sc2c1` [Table 3; entry 5], the 50% inhibitory concentration (IC50) in series [3] was 54 nM. Further, the “effects in metabolism shift compared with ranolazine or trimetazidine” value in series [4] is given as “more profound effects in metabolism shift”.

As for `S=C(Nc1ccccc1)N(Cc1ccccc1)c1ccc2nc(S)sc2c1` [Table 3; entry 8], the half-maximal inhibitory concentration (IC50) in series [3] was determined as 240 nM.

As for `O=C(COc1ccccc1)N(Cc1ccccc1)c1ccc2nc(S)sc2c1` [Table 4; entry 1, N-(2-mercapto-1,3-benzothiazol-6-yl)-N-(phenylmethyl)-2-(phenyloxy)acetamide], the IC50 in series [3] was found to be 1020 nM.

`CCCN(C(=O)N(CC(C)C)CC(C)C)c1ccc2nc(S)sc2c1` [Table 5; entry 5]: in series [3], the concentration for half-maximal inhibition (IC50) was 263 nM.

In the case of `O=S(=O)(c1ccc2sc(S)nc2c1)N1CCCCC1` [Table 7; entry 2], in series [3], the IC50 is 466 nM.

A word on the melting point: it is the temperature of the solid-liquid transition. In turn, `CCOC(=O)c1csc(S)n1` [Table 8; entry 1, Ethyl 2-Mercapto-1,3-thiazole-4-carboxylate] returned a melting point of 120 to 121 °C.
